Laboratory results: ChEMBL document CHEMBL1649149, “Sitafloxacin and garenoxacin may overcome the antibiotic resistance of Helicobacter pylori with gyrA mutation” (2009)
≈ marks a conversion by molar mass, not a printed value.

How the values were obtained:
Type in all cases: functional
Helicobacter pylori [1] = assay: Antibacterial activity against Helicobacter pylori infected in human assessed as bacterial eradication rate at 1 g, po BID for 7 days
Helicobacter pylori [2] = assay: Antibacterial activity against Helicobacter pylori infected in human assessed as bacterial eradication rate at 400 mg, po QD for 7 days
Helicobacter pylori [3] = assay: Antibacterial activity against Helicobacter pylori harboring gyrA mutant gene infected in human assessed as bacterial eradication rate after 7 days
Helicobacter pylori [4] = assay: Antibacterial activity against Helicobacter pylori infected in human assessed as bacterial eradication rate at 20 mg, po BID for 7 days
Helicobacter pylori [5] = assay: Antibacterial activity against Helicobacter pylori harboring gyrA mutant gene by agar dilution method
Helicobacter pylori [6] = assay: Antibacterial activity against Helicobacter pylori harboring gyrA mutant gene assessed as resistant isolates
Helicobacter pylori [7] = assay: Antibacterial activity against Helicobacter pylori harboring gyrA mutant gene
Helicobacter pylori [8] = assay: Antibacterial activity against Helicobacter pylori infected in human assessed as bacterial eradication rate at 20 mg, po BID for 10 days by 13C-urea breath test
Helicobacter pylori [9] = assay: Antibacterial activity against GAT-susceptible Helicobacter pylori infected in human assessed as bacterial eradication rate for 7 days
Helicobacter pylori [10] = assay: Antibacterial activity against Helicobacter pylori

Row | SMILES | Activity (Helicobacter pylori [1]) | Activity (Helicobacter pylori [2]) | Activity (Helicobacter pylori [3]) | Activity (Helicobacter pylori [4]) | MIC50 (Helicobacter pylori [5]) | MIC90 (Helicobacter pylori [5]) | other results
1 | CC1(C)S[C@@H]2[C@H](NC(=O)[C@H](N)c3ccc(O)cc3)C(=O)N2[C@H]1C(=O)O [AMOXICILLIN] | 84.4% | 84.4% | 33.3% | 84.4% | – | – | –
2 | C[C@H]1NCc2cc(-c3ccc4c(=O)c(C(=O)O)cn(C5CC5)c4c3OC(F)F)ccc21 [GARENOXACIN] | – | – | – | – | 0.5 mg/L (≈ 1.17 µM) | 1 mg/L (≈ 2.35 µM) | –
3 | COc1c(N2CCNC(C)C2)c(F)cc2c(=O)c(C(=O)O)cn(C3CC3)c12 (configuration not stated) [GATIFLOXACIN] | 84.4% | 84.4% | 33.3% | 84.4% | 2 mg/L (≈ 5.33 µM) | 4 mg/L (≈ 10.7 µM) | Activity (Helicobacter pylori [6]): 47.9%; MIC (Helicobacter pylori [7]): ≥ 1 mg/L
4 | COc1ccc2[nH]c([S+]([O-])Cc3ncc(C)c(OC)c3C)nc2c1 (configuration not stated) [OMEPRAZOLE] | – | – | – | – | – | – | Activity (Helicobacter pylori [8]): 66%
5 | COCCCOc1ccnc(C[S+]([O-])c2nc3ccccc3[nH]2)c1C (configuration not stated) [RABEPRAZOLE] | 84.4% | 84.4% | – | 84.4% | – | – | Activity (Helicobacter pylori [9]): 100%
6 | N[C@@H]1CN(c2c(F)cc3c(=O)c(C(=O)O)cn([C@@H]4C[C@@H]4F)c3c2Cl)CC12CC2 [SITAFLOXACIN ANHYDROUS] | – | – | – | – | 0.12 mg/L (≈ 0.293 µM) | 0.25 mg/L (≈ 0.61 µM) | MIC90 (Helicobacter pylori [10]): < 0.008 mg/L
